The values that follow come from patent publication US20240118281A1, “ANTICANCER COMPOUNDS AND USES THEREOF” (University of Florida Research Foundation, Incorporated, priority 2021, published 2024).

The subject of test [1] is MDA-MB-468 and BT474 cells. The test is described as follows: Immunoblot analysis of treated cells (FIG. 9D). Particulars: 24 h. The format is cell-based. From the text:
The BT20, BT474, BT549, MCF7, MDA-MB-231, MDA-MB-436, MDA-MB-468, HCC1143, HCC1500, HCC1569, HCC1937, HCC1954, Hs578t, and T47D cells lines were purchased from American Type Culture Collection (ATCC) (Manassas, VA). The HCI-001 cell line was derived from an ER-/PR-/HER2- patient-derived xenograft originally isolated from a patient as described previously (DeRose Y S, et al. Nat Med 2011; 17: 1514-1520). The HCI-001/LVM2 model was derived from the HCI-001 cell line by performing two rounds of selection for liver metastasis, as described previously (Wang M, et al. Cell Death Discovery 2019; 5: 153). Cell lines were grown in Dulbecco's Modified Eagle's Medium (GE Healthcare Life Sciences, Logan, UT) containing 10% fetal bovine serum (10% FBS—DMEM) in a humidified incubator with 5% CO2 at 37° C. Cell lysates were prepared as described previously (Law B K, et al. Mol Cell Biol. 2002; 22: 8184-8198). […]
(In general: A western blot detects proteins with antibodies after separation by electrophoresis.)

Test [2] concerns the target T1, C81S AGR2 mutant (Homo sapiens, UniProt O95994, C81S).
T1 construct: made in house; host or cells: E. coli BL21(DE3), pET-45b(+)
The test is described as follows: DDA-AGR2 binding assay, C81S mutant. The conditions noted are these: FIG. 2D. The protocol: Total RNA from BT474 cells was extracted with TRIzol Reagent (Invitrogen, Waltham, MA) according to the manufacturer's protocol. Total cellular RNA was used to synthesize first-strand cDNA by using the PCR conditions listed: 25° C. for 10 min, 42° C. for 30 min, and 95° C. for 5 min. PCR was subsequently performed using the following AGR2 primers: 5′-[…]-3′ and 5′-[…]-3′. The PCR fragment encoding AGR2 was subsequently digested with BamHI and SnaBI and cloned into the 5′ BamHI and 3′ SnaBI sites of pMXs-IRES-Blasticidin. The AGR2/pMXs-IRES-Blasticidin vector was used as a template for PCR reactions using the following AGR2 primers to amplify the DNA sequence downstream of the AGR2 signal sequence and to add 5′-BamHI and 3′-SalI sites: 5′-[…]-3′ and 5′-[…]-3′. The PCR fragment was digested with BamHI and SalI and cloned into the 5′ BamHI and 3′ SalI sites of pET-45b(+) (Novagen Burlington, MA). QuikChange mutagenesis was performed to produce the C81S mutation of AGR2 using the follow primers: 5′- […]-3′ and 5′-[…]-3′. The C81S mutation of AGR2 was verified by sequencing.
Competent BL21(DE3) cells were transformed with either the AGR2/pET-45b(+) or AGR2 C81S/pET-45b(+) vectors. Protein expression was induced by the addition of 50 µM Isopropyl β-D-1-thiogalactopyranoside (Fisher Scientific, Fair Lawn, NJ) to bacterial cell cultures for 2.5 hours and shaking at 37° C. […]

Test [3] deals with T2, AGR3 (Homo sapiens, UniProt Q8TD06).
T2 construct: His6 (N); purchased ProSpec PRO-242
T2 sequence (Q8TD06 22-166): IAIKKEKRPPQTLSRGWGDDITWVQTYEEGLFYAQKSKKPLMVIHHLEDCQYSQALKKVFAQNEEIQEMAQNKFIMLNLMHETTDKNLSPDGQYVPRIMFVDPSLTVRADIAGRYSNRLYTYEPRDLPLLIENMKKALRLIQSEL
The experiment in a line: DDA binding assay with AGR3. Particulars: FIG. 2D. The procedure:
(§1) Purified His6-AGR2 or His6-AGR2 C81S, as prepared above, or His6-AGR2 (PRO-580) or His6-AGR3 (PRO-242) obtained from ProSpec (New Brunswick NJ) were incubated with or without varying concentrations of the unlabeled DDA competitors, tcyDTDO or dMtcyDTDO, and 30 μM Biotin-GlyPyrDTDO or Biotin-PyrDTDO in buffer (20 mM HEPES (pH 7.4), 1 mM EDTA, 1 mM EGTA, 5% Glycerol, 1 nM Microcystin, 1 mM Na3VO4, and 40 mM Na2H2P2O7) containing 1% Triton-X 100 for 30 min at 37° C. […] Therefore, the two probes were used interchangeably. Reactions were stopped by boiling the samples in 2×-SDS-Sample Buffer containing 100 mM NEM for 10 min. Biotin-DDA labeling of protein was verified by blotting with Streptavidin-Alkaline Phosphatase (Rockland Immunochemicals, Inc., Limerick, PA). ERp44 (PRO-547) and PDIA1 (ENZ-262) were obtained from ProSpec and used in experiments examining the binding of these proteins to Biotin-PyrDTDO.

Test [4] has as its system proteins in intact cells and purified proteins in vitro. The experiment in a line: Preliminary studies of biotinylated DDA protein labeling. The procedure:
as §1

Test [5] deals with T3, AGR2 (Homo sapiens, UniProt O95994).
T3 sequence (O95994 21-175): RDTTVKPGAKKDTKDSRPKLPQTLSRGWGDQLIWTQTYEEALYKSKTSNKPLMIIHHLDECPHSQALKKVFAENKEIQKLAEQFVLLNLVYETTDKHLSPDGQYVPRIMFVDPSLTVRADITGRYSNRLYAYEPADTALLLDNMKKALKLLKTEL
The experiment in a line: DDA-AGR2 binding assay, Streptavidin-Alkaline Phosphatase blot. Also noted: made in house; host or cells: E. coli BL21(DE3), pET-45b(+). Particulars: 37° C., non-reducing SDS-PAGE, FIG. 2B. The protocol: Competent BL21(DE3) cells were transformed with either the AGR2/pET-45b(+) or AGR2 C81S/pET-45b(+) vectors. Protein expression was induced by the addition of 50 µM Isopropyl β-D-1-thiogalactopyranoside (Fisher Scientific, Fair Lawn, NJ) to bacterial cell cultures for 2.5 hours and shaking at 37° C. Bacterial cells were subsequently pelleted and dissolved in Mouse Tonicity Phosphate Buffered Saline (MTPBS) containing 1% Triton X-100 and sonicated for 20 seconds on ice, followed by centrifugation for 10 min at 4° C. to pellet cell debris. The supernatant was transferred to a new tube, followed by the addition of TALON Resin (Clontech, Mountain View, CA) and mixing on a Nutator for 30 min at 4° C. The TALON Resin was pelleted by centrifugation and washed twice with MTPBS and twice with MTPBS containing 30 mM Imidazole. Protein bound to the TALON Resin was eluted with 400 mM Imidazole and precipitated with 60% saturated ammonium sulfate. The precipitated protein was pelleted by centrifugation, dissolved in MTPBS containing 1 mM DTT and 1 mM EDTA, and subsequently dialyzed against a solution of MTPBS containing 10 μM DTT and 30% Glycerol.
as §1

In test [6] the test system is HCI-001/LVM2 breast tumors and associated liver metastases. The experiment in a line: HCI-001/LVM2 breast tumor liver metastasis study, H&E staining of livers. The test is classed as in vivo, mice. Particulars: 20 mg/kg oral gavage once daily, four consecutive days; necrosis not observed in vehicle treated tumors. The procedure: Breast cancer liver metastasis was initiated in NOD-SCID-gamma (NSG) mice obtained from Jackson Laboratories (Bar Harbor, ME) by injecting 1×10^6 cancer cells into the #4 mammary fat pads as described previously (Wang M, et al. Cell Death Discovery 2019; 5: 153). Mice bearing HCI-001/LVM2 breast tumors were treated once daily for four consecutive days with 20 mg/kg tcyDTDO by oral gavage and livers were collected. Animals bearing HER2+ BT474 tumors were treated with the vehicle or 20 mg/kg dMtcyDTDO or dFtcyDTDO by intraperitoneal injection for four consecutive days. Tissue samples fixed in 4% paraformaldehyde/PBS and paraffin-embedded were sectioned and stained with hematoxylin and eosin (H&E) by the University of Florida Molecular Pathology Core (https://molecular.pathology.ufl.edu/).

T1 sequence (O95994 21-175 C81S): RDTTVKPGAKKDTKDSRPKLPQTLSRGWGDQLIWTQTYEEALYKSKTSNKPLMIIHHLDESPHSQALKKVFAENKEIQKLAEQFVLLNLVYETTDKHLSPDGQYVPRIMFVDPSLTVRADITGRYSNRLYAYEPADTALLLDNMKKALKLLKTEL

In the case of `CC(C)(C)OC(=O)N1C[C@@H]2CS(=O)(=O)SC[C@H]2C1` (racemic) [(±)-BocPyrDTDO, tert-Butyl-(4aS,7aS)- and (4aR,7aR)-tetrahydro-1H-[1,2]dithiino[4,5-e]pyrrole-6(4H)-carboxylate 2,2-dioxide], in test [1], the “Biological activity and potency compared with DTDO” value is “biologically active and showed a potency similar to DTDO”.
Take `O=C(CCCC[C@@H]1SC[C@@H]2NC(=O)N[C@@H]21)NCC(=O)N1C[C@@H]2CS(=O)(=O)SC[C@H]2C1` (racemic) [Biotin-GlyPyrDTDO, N-(2-((4aS,7aS)- and (4aR,7aR)-2,2-Dioxidotetrahydro-1H-[1,2]dithiino[4,5-c]pyrrol-6(4H)-yl)-2-oxoethyl)-5-((3aS,4S,6aR)-2-oxohexahydro-1H-thieno[3,4-d]imidazol-4-yl)pentanamide]: in test [2], the “Labeling of C81S AGR2 mutant by biotinylated DDA” value was “not labeled”. The “Labeling of AGR3 by biotinylated DDA” value in test [3] is “also labeled”. Moreover, the “Labeling of proteins, comparison of the two biotinylated probes” value in test [4] is “indistinguishable labeling of proteins in intact cells and purified proteins in vitro”. Moreover, in test [5], the “Labeling of AGR2 by biotinylated DDA” value is “labeled AGR2 in a concentration-dependent manner”.
As for `O=S1(=O)CC2CCCCC2CS1` (stereo not drawn) [tcyDTDO], the “Liver metastases, H&E histology” value in test [6] was “exhibited central necrosis”.
